Test results: ChEMBL document CHEMBL4004838, “Design and synthesis of novel phenyl -1, 4-beta-carboline-hybrid molecules as potential anticancer agents” (Eur J Med Chem, 2017)

Legend:
Type in all cases: functional
CCRF-CEM = assay: Growth inhibition of human CCRF-CEM cells assessed as cell growth at 10^-5 M incubated for 48 hrs by sulforhodamine B assay relative to control; details: read-out: Activity
HL-60(TB) = assay: Growth inhibition of human HL-60(TB) cells assessed as cell growth at 10^-5 M incubated for 48 hrs by sulforhodamine B assay relative to control; details: HL-60, 48 h, read-out: Activity
K562 = assay: Growth inhibition of human K562 cells assessed as cell growth at 10^-5 M incubated for 48 hrs by sulforhodamine B assay relative to control; details: K562, 48 h, read-out: Activity
SR = assay: Growth inhibition of human SR cells assessed as cell growth at 10^-5 M incubated for 48 hrs by sulforhodamine B assay relative to control; details: read-out: Activity
A549 = assay: Growth inhibition of human A549/ATCC cells assessed as cell growth at 10^-5 M incubated for 48 hrs by sulforhodamine B assay relative to control; details: A549, 48 h, read-out: Activity
EKVX = assay: Growth inhibition of human EKVX cells assessed as cell growth at 10^-5 M incubated for 48 hrs by sulforhodamine B assay relative to control; details: read-out: Activity
HOP-62 = assay: Growth inhibition of human HOP62 cells assessed as cell growth at 10^-5 M incubated for 48 hrs by sulforhodamine B assay relative to control; details: HOP-62, 48 h, read-out: Activity
HOP-92 = assay: Growth inhibition of human HOP92 cells assessed as cell growth at 10^-5 M incubated for 48 hrs by sulforhodamine B assay relative to control; details: HOP-92, 48 h, read-out: Activity
NCI-H226 = assay: Growth inhibition of human NCI-H226 cells assessed as cell growth at 10^-5 M incubated for 48 hrs by sulforhodamine B assay relative to control; details: NCI-H226, 48 h, read-out: Activity
NCI-H23 = assay: Growth inhibition of human NCI-H23 cells assessed as cell growth at 10^-5 M incubated for 48 hrs by sulforhodamine B assay relative to control; details: NCI-H23, 48 h, read-out: Activity
NCI-H460 = assay: Growth inhibition of human NCI-H460 cells assessed as cell growth at 10^-5 M incubated for 48 hrs by sulforhodamine B assay relative to control; details: NCI-H460, 48 h, read-out: Activity
HCC 2998 = assay: Growth inhibition of human HCC2998 cells assessed as cell growth at 10^-5 M incubated for 48 hrs by sulforhodamine B assay relative to control; details: HCC 2998, 48 h, read-out: Activity
SF-268 = assay: Growth inhibition of human SF268 cells assessed as cell growth at 10^-5 M incubated for 48 hrs by sulforhodamine B assay relative to control; details: SF-268, 48 h, read-out: Activity
SF-295 = assay: Growth inhibition of human SF295 cells assessed as cell growth at 10^-5 M incubated for 48 hrs by sulforhodamine B assay relative to control; details: SF-295, 48 h, read-out: Activity
SF-539 = assay: Growth inhibition of human SF539 cells assessed as cell growth at 10^-5 M incubated for 48 hrs by sulforhodamine B assay relative to control; details: SF-539, 48 h, read-out: Activity
LOX IMVI = assay: Growth inhibition of human LOXIMVI cells assessed as cell growth at 10^-5 M incubated for 48 hrs by sulforhodamine B assay relative to control; details: read-out: Activity
SK-MEL-2 = assay: Growth inhibition of human SK-MEL-2 cells assessed as cell growth at 10^-5 M incubated for 48 hrs by sulforhodamine B assay relative to control; details: SK-MEL-2, 48 h, read-out: Activity
SK-MEL-28 = assay: Growth inhibition of human SK-MEL-28 cells assessed as cell growth at 10^-5 M incubated for 48 hrs by sulforhodamine B assay relative to control; details: SK-MEL-28, 48 h, read-out: Activity
SK-MEL-5 = assay: Growth inhibition of human SK-MEL-5 cells assessed as cell growth at 10^-5 M incubated for 48 hrs by sulforhodamine B assay relative to control; details: SK-MEL-5, 48 h, read-out: Activity
UACC-62 = assay: Growth inhibition of human UACC62 cells assessed as cell growth at 10^-5 M incubated for 48 hrs by sulforhodamine B assay relative to control; details: UACC-62, 48 h, read-out: Activity
OVCAR-3 = assay: Growth inhibition of human OVCAR3 cells assessed as cell growth at 10^-5 M incubated for 48 hrs by sulforhodamine B assay relative to control; details: OVCAR-3, 48 h, read-out: Activity
OVCAR-4 = assay: Growth inhibition of human OVCAR4 cells assessed as cell growth at 10^-5 M incubated for 48 hrs by sulforhodamine B assay relative to control; details: OVCAR-4, 48 h, read-out: Activity
OVCAR-5 = assay: Growth inhibition of human OVCAR5 cells assessed as cell growth at 10^-5 M incubated for 48 hrs by sulforhodamine B assay relative to control; details: OVCAR-5, 48 h, read-out: Activity
SK-OV-3 = assay: Growth inhibition of human SKOV3 cells assessed as cell growth at 10^-5 M incubated for 48 hrs by sulforhodamine B assay relative to control; details: SK-OV-3, 48 h, read-out: Activity
RXF 393 = assay: Growth inhibition of human RXF393 cells assessed as cell growth at 10^-5 M incubated for 48 hrs by sulforhodamine B assay relative to control; details: RXF 393, 48 h, read-out: Activity
TK-10 = assay: Growth inhibition of human TK10 cells assessed as cell growth at 10^-5 M incubated for 48 hrs by sulforhodamine B assay relative to control; details: TK-10, 48 h, read-out: Activity
UO-31 = assay: Growth inhibition of human UO31 cells assessed as cell growth at 10^-5 M incubated for 48 hrs by sulforhodamine B assay relative to control; details: UO-31, 48 h, read-out: Activity
DU-145 = assay: Growth inhibition of human DU145 cells assessed as cell growth at 10^-5 M incubated for 48 hrs by sulforhodamine B assay relative to control; details: DU-145, 48 h, read-out: Activity
MCF7 = assay: Growth inhibition of human MCF7 cells assessed as cell growth at 10^-5 M incubated for 48 hrs by sulforhodamine B assay relative to control; details: MCF7, 48 h, read-out: Activity
MDA-MB-231 = assay: Growth inhibition of human MDA-MB-231 cells assessed as cell growth at 10^-5 M incubated for 48 hrs by sulforhodamine B assay relative to control; details: MDA-MB-231, 48 h, read-out: Activity
Hs-578T = assay: Growth inhibition of human Hs 578T cells assessed as cell growth at 10^-5 M incubated for 48 hrs by sulforhodamine B assay relative to control; details: read-out: Activity
T47D = assay: Growth inhibition of human T47D cells assessed as cell growth at 10^-5 M incubated for 48 hrs by sulforhodamine B assay relative to control; details: read-out: Activity

With `c1ccc2[nH]c(-c3ccc(C4NCCc5c4[nH]c4ccccc54)cc3)nc2c1` (configuration not stated) the growth at 10 µM (CCRF-CEM) was 103%, the growth at 10 µM (HL-60(TB)) was 97.9% and the growth at 10 µM (K562) was 88.2%. For the same compound, the growth at 10 µM (SR) was 119%, the growth at 10 µM (A549) was 82.9% and the growth at 10 µM (EKVX) was 103%. For the same compound, the growth at 10 µM (HOP-62) was 89%, the growth at 10 µM (HOP-92) was 82.2% and the growth at 10 µM (NCI-H226) was 93.5%. It also gave a growth at 10 µM (NCI-H23) of 102%, a growth at 10 µM (NCI-H460) of 104% and a growth at 10 µM (HCC 2998) of 107%. It also gave a growth at 10 µM (SF-268) of 98.6%, a growth at 10 µM (SF-295) of 107% and a growth at 10 µM (SF-539) of 102%. For the same compound, the growth at 10 µM (LOX IMVI) was 98%, the growth at 10 µM (SK-MEL-2) was 96.8% and the growth at 10 µM (SK-MEL-28) was 102%. For the same compound, the growth at 10 µM (SK-MEL-5) was 96.5%, the growth at 10 µM (UACC-62) was 86.3% and the growth at 10 µM (OVCAR-3) was 107%. For the same compound, the growth at 10 µM (OVCAR-4) was 97.9%, the growth at 10 µM (OVCAR-5) was 94.2% and the growth at 10 µM (SK-OV-3) was 95.6%. For the same compound, the growth at 10 µM (RXF 393) was 94.2%, the growth at 10 µM (TK-10) was 94.6% and the growth at 10 µM (UO-31) was 73.5%. It also gave a growth at 10 µM (DU-145) of 113%, a growth at 10 µM (MCF7) of 96.7% and a growth at 10 µM (MDA-MB-231) of 92.2%. The growth at 10 µM (Hs-578T) was 93.9% and the growth at 10 µM (T47D) was 90.8%.
